Source: US20250360145A1, “CSF-1R INHIBITORS AND USES THEREOF” (Myrobalan Therapeutics, Inc., priority 2022, published 2025)
Like-named read-outs stand apart in the source and are kept apart here.

Tests used:
c-Kit = c-Kit (Homo sapiens (Human), UniProt P10721); assay: Biochemical HTRF kinase assay, c-Kit;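 further: enzyme reaction with substrate and ATP run in 384-well plates for 1 hour at room temperature, kinase activity detected by HTRF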
[1] = tested on: human iPSC-derived microglia (hiPSC-MG); assay: hiPSC-MG survival (Presto-Blue viability); format: cell-based; conditions: 48 h treatment
[2] = Brain protein binding study; format: in vitro ADME; conditions: mouse brain homogenate, equilibrium dialysis 4 hours
[3] = Plasma protein binding study; format: in vitro ADME; conditions: mouse plasma, equilibrium dialysis 4 hours; read-out: PPB-mouse (Bound) (%) (converted)
CSF-1R = CSF-1R (Homo sapiens (Human), UniProt P07333); assay: Biochemical HTRF kinase assay, CSF-1R; conditions: recombinant human CSF-1R;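 further: enzyme incubated with inhibitor plus a substrate and ATP mix for one hour at room temperature before HTRF detection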
PDGFRβ = PDGFRβ (Homo sapiens (Human), UniProt P09619); assay: Biochemical HTRF kinase assay, PDGFRβ;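 further: kinase reaction with substrate/ATP mix run 1 h at room temperature in 384-well format, HTRF signal detection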
[4] = In vivo PK study (plasma and brain exposure); design: species or system CD1 mouse; conditions: for half-life: CD1, mouse
How it was run: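 Male CD1 mice (23-30 g, 6-8 weeks) dosed at 45 mg/kg p.o. or 2 mg/kg i.v. Serum and brain samples collected and quantified by LC-MS/MS.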

FLT3 = FLT3 (Homo sapiens (Human), UniProt P36888); assay: Biochemical HTRF kinase assay, FLT3
FLT3, sequence (P36888 27-993): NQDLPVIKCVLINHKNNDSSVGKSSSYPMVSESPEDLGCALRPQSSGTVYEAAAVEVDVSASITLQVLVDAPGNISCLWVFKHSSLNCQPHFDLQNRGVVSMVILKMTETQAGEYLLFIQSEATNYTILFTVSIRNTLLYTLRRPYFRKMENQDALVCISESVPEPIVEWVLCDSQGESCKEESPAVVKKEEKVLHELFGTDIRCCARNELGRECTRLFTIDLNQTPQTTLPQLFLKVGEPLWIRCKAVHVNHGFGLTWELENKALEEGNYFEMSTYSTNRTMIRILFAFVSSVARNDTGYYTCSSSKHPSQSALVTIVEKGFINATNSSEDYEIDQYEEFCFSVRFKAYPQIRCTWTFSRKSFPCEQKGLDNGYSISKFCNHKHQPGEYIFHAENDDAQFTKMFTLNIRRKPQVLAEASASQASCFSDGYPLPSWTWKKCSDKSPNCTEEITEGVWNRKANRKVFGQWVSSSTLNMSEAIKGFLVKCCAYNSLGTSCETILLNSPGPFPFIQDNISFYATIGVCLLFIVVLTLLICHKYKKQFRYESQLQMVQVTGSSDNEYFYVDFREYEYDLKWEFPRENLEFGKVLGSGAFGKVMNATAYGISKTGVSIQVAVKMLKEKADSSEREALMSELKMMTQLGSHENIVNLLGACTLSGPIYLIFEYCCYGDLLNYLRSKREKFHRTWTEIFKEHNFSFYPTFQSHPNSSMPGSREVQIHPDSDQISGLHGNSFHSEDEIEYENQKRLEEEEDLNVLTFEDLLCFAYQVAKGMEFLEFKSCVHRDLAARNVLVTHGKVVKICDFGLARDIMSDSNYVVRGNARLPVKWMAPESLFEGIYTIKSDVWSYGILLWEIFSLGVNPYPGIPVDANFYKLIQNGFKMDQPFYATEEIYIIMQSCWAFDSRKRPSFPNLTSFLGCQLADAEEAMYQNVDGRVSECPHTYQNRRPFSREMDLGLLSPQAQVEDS

c-Kit, sequence (P10721 26-976): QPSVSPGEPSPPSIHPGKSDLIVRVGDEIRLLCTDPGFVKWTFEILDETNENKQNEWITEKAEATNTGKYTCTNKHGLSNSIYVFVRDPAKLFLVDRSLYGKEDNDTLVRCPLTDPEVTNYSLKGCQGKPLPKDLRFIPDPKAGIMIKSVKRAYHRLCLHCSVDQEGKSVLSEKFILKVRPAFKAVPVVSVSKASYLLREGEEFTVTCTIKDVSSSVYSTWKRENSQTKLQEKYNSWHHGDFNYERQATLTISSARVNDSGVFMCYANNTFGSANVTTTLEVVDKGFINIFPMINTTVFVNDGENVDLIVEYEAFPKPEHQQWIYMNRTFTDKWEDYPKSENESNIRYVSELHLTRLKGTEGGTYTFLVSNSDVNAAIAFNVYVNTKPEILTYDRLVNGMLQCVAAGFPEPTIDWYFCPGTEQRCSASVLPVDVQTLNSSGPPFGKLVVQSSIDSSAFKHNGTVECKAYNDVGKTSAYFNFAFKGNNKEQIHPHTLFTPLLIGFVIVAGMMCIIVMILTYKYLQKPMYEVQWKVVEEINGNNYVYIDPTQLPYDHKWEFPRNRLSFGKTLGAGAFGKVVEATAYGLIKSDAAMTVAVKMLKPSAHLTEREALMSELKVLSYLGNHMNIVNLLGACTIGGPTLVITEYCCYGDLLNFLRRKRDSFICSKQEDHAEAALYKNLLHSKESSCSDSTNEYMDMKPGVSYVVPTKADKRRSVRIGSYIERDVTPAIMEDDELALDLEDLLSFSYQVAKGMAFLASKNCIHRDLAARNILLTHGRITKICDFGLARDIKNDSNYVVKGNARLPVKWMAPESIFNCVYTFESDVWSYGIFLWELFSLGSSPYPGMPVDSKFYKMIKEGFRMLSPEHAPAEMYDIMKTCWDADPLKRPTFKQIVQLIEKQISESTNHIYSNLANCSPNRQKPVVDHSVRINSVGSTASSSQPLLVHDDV
PDGFRβ, sequence (P09619 33-1106): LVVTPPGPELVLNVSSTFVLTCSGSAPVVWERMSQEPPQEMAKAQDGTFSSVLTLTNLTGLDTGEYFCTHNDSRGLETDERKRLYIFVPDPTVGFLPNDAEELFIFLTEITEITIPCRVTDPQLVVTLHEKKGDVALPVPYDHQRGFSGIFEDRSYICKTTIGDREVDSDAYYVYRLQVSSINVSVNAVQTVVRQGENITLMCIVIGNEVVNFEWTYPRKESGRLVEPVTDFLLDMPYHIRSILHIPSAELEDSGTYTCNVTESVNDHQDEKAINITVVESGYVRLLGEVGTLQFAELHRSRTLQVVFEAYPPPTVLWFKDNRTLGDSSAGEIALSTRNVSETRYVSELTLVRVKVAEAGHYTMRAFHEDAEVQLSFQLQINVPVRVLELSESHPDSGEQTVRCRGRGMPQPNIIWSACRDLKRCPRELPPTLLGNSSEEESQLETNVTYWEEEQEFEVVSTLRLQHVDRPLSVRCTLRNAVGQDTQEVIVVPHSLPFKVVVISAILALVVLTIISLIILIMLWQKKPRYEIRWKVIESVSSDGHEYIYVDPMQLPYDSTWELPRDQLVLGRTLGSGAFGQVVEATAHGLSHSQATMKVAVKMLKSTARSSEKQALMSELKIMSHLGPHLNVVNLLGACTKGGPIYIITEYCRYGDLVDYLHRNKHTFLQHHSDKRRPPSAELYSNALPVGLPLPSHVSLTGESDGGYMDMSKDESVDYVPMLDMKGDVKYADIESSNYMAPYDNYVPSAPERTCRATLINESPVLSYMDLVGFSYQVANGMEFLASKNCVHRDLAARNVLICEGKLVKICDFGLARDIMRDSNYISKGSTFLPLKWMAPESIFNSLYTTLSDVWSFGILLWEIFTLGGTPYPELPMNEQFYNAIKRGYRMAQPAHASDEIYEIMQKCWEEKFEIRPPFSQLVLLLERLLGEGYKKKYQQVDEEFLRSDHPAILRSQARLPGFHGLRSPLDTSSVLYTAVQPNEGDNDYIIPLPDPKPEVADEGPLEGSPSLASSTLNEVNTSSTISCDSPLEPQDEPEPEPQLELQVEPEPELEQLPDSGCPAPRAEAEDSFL
CSF-1R, sequence (P07333 20-972): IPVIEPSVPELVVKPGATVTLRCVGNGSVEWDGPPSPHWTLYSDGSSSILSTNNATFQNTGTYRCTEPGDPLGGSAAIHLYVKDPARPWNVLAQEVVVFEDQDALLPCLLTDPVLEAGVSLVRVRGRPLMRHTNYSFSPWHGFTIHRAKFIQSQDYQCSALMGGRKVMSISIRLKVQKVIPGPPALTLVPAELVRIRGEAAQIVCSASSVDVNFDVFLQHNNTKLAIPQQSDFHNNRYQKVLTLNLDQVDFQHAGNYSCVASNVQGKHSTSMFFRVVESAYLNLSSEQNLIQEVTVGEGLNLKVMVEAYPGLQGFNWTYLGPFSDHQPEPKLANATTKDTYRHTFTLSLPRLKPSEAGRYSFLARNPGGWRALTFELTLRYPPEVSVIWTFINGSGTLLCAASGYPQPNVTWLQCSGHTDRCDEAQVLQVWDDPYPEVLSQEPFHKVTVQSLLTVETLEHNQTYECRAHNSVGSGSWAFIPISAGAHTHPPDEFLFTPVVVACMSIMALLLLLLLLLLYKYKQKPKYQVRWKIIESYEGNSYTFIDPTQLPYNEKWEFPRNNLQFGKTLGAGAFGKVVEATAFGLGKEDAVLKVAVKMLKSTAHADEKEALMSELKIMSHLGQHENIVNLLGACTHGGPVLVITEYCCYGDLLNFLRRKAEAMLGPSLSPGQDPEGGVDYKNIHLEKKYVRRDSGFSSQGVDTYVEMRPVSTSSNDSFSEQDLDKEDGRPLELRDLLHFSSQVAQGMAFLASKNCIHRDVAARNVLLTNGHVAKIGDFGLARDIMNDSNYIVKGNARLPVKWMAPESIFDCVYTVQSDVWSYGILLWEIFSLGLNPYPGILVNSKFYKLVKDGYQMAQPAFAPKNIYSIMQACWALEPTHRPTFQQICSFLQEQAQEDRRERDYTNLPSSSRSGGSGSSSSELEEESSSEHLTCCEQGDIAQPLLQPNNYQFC

SMILES: COc1ccc(COc2ncc(Cc3ccnc4cc(OC)cnc34)cc2OC)nc1 [Example 16, 3-methoxy-8-((5-methoxy-6-((5-methoxypyridin-2-yl)methoxy)pyridin-3-yl)methyl)-1,5-naphthyridine]
- IC50 (c-Kit; recombinant human protein, read-out: cKit IC50): 881 nM
- cKit Fold (c-Kit; selectivity: IC50 of cKit as multiple of IC50 of CSF-1R): >100 fold
- hiPSC-MG survival IC50 compared with BLZ945 [1]: lower than that of BLZ945
- IC50 ([1]; Homo sapiens, Microglia): 31.5 nM
- BPB-mouse (Bound) (%) [2]: 98.10%
- fraction unbound at 4 h, 2 µM [3]: 0.0063
- IC50 (CSF-1R; Table 2): 2.1 nM
- IC50 (CSF-1R; Table 3): 2.1 nM
- IC50 (PDGFRβ; recombinant human protein, read-out: PDGFR-1β IC50): > 1000 nM
- PDGFR-1β Fold (PDGFRβ; selectivity: IC50 of PDGFR-1β as multiple of IC50 of CSF-1R): >100 fold
- IV-2mpk CL ([4]; CD1 mouse, i.v. 2 mg/kg): 7.47 mL/min/kg
- IV-2mpk T1/2 ([4]; CD1 mouse, i.v. 2 mg/kg): 2.52 h
- Kp uu ([4]; male, CD1, brain, po, mouse, p.o. 45 mg/kg, BBB penetration): 1.1
- half-life ([4]; male, serum, iv, 2 mg/kg, CD1 mouse, i.v. 2 mg/kg, read-out: IV-2mpk T1/2 (converted)): 2.52 h
- half-life ([4]; male, serum, po, 45 mg/kg, CD1 mouse, p.o. 45 mg/kg, read-out: PO-45mpk T1/2 (converted)): 1.9 h
- AUC(0-t) ([4]; male, CD1, po, mouse, p.o. 45 mg/kg, brain, read-out: PO-45mpk AUClast-brain): 76.8 µg·h/mL
- AUC(0-t) ([4]; male, CD1, po, mouse, p.o. 45 mg/kg, plasma, Tables 7 and 8, read-out: PO-45mpk AUClast-plasma): 210 µg·h/mL
- AUC(0-inf) ([4]; male, serum, iv, CD1 mouse, i.v. 2 mg/kg, read-out: IV-2mpk AUCInf): 4.46 µg·h/mL
- AUC(0-t) ([4]; male, serum, iv, CD1 mouse, i.v. 2 mg/kg, read-out: IV-2mpk AUClast): 4.46 µg·h/mL
- clearance ([4]; male, serum, iv, CD1 mouse, i.v. 2 mg/kg, read-out: IV-2mpk CL (converted)): 7.47 mL/min/kg
- Vd ([4]; male, serum, iv, CD1 mouse, i.v. 2 mg/kg, read-out: IV-2mpk VSS): 0.955 L/kg
- bioavailability ([4]; male, serum, po, CD1 mouse, p.o. 45 mg/kg vs i.v. 2 mg/kg): 215%
- AUC(0-t) ([4]; male, serum, po, CD1 mouse, p.o. 45 mg/kg, Tables 5 and 6, read-out: PO-45mpk AUClast): 216 µg·h/mL
- AUC(0-inf) ([4]; male, serum, po, CD1 mouse, p.o. 45 mg/kg, read-out: PO-45mpk AUCInf): 216 µg·h/mL
- Cmax ([4]; male, serum, po, CD1 mouse, p.o. 45 mg/kg, read-out: PO-45mpk Cmax): 31400 ng/mL
- Tmax ([4]; male, serum, po, CD1 mouse, p.o. 45 mg/kg, read-out: PO-45mpk Tmax): 1 h
- IC50 (FLT3; recombinant human protein): > 1000 nM
- FLT3 Fold (FLT3; selectivity: IC50 of FLT3 as multiple of IC50 of CSF-1R): >100 fold
